Where “and” joins values, the source holds several entries; their conditions need not be identical. Equal entries are not always repeated. Inconclusive results and toxic doses are left out. How the source made its calls: active means survival T/C of 150% or more; inactive means T/C below 125% in these data.
Tested on: BDF1 mice, P388 leukemia ip, median survival T/C
Assay: NCI In Vivo Anticancer Drug Screen. Data for tumor model P388 Leukemia (intraperitoneal) in B6D2F1 (BDF1) mice
Conditions: endpoint: median survival time, higher = longer survival
In short: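 Read-out is survival of treated animals expressed relative to the vehicle group, as a T/C ratio.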

[1] = dose: 100.0 mg/kg/injection, schedule: Q04DX003 (ip), vehicle: saline with Tween-80
[2] = dose: 200.0 mg/kg/injection, schedule: Q04DX003 (ip), vehicle: Klucel (hydroxypropylcellulose) (HPC)
[3] = dose: 200.0 mg/kg/injection, schedule: Q04DX003 (ip), vehicle: saline with Tween-80
[4] = dose: 25.0 mg/kg/injection, schedule: Q01DX009 (ip), vehicle: saline with Tween-80
[5] = dose: 100.0 mg/kg/injection, schedule: Q04DX003 (ip), vehicle: Klucel (hydroxypropylcellulose) (HPC)
[6] = dose: 12.5 mg/kg/injection, schedule: Q01DX009 (ip), vehicle: Klucel (hydroxypropylcellulose) (HPC)
[7] = dose: 200.0 mg/kg/injection, schedule: Q01DX009 (ip), vehicle: Klucel (hydroxypropylcellulose) (HPC)
[8] = dose: 50.0 mg/kg/injection, schedule: Q01DX009 (ip), vehicle: saline with Tween-80
[9] = dose: 100.0 mg/kg/injection, schedule: Q01DX009 (ip), vehicle: saline with Tween-80
[10] = dose: 200.0 mg/kg/injection, schedule: Q01DX009 (ip), vehicle: saline with Tween-80
[11] = dose: 100.0 mg/kg/injection, schedule: Q01DX009 (ip), vehicle: Klucel (hydroxypropylcellulose) (HPC)

Measured: T/C

CCCCc1ccc2nc(NC(=O)OC)[nH]c2c1
active: dose: 100.0 mg/kg/injection, schedule: Q04DX003 (ip), vehicle: other 174 % of control | [1] 169 % of control | [2] 160 % of control
inactive: dose: 200.0 mg/kg/injection, schedule: Q04DX003 (ip), vehicle: other 93 % of control | [3] 96 % of control

Cc1cc(=O)c2c(C)cccc2[nH]1
inactive: dose: 6.25 mg/kg/injection, schedule: Q04DX003 (ip), vehicle: saline sonified 104 % of control | dose: 12.5 mg/kg/injection, schedule: Q04DX003 (ip), vehicle: saline sonified 109 % of control | [4] 113 % of control | dose: 25.0 mg/kg/injection, schedule: Q04DX003 (ip), vehicle: saline sonified 100 % of control

Clc1ccc(N=Cc2ccc(C=Nc3ccc(Cl)c(Cl)c3)cc2)cc1Cl
inactive: [5] 100 % of control | [2] 90 % of control | dose: 400.0 mg/kg/injection, schedule: Q04DX003 (ip), vehicle: Klucel (hydroxypropylcellulose) (HPC) 100 % of control

CC(=O)OCC(CO)(CO)CO
inactive: dose: 100.0 mg/kg/injection, schedule: Q04DX003 (ip), vehicle: saline 100 % of control | dose: 200.0 mg/kg/injection, schedule: Q04DX003 (ip), vehicle: saline 100 % of control | dose: 400.0 mg/kg/injection, schedule: Q04DX003 (ip), vehicle: saline 100 % of control

CCN(CC)CCOC(=O)c1ccc([N+](=O)[O-])c2ccccc12
inactive: dose: 50.0 mg/kg/injection, schedule: Q01DX005 (ip), vehicle: saline with Tween-80 98 % of control | dose: 100.0 mg/kg/injection, schedule: Q01DX005 (ip), vehicle: saline with Tween-80 88 % of control | dose: 200.0 mg/kg/injection, schedule: Q01DX005 (ip), vehicle: saline with Tween-80 88 % of control

CC1=Nc2ccccc2/C1=C\c1c(C)[nH]c2ccccc12
active: [6] 161 % of control | [7] 154 % of control
inactive: dose: 5.5 mg/kg/injection, schedule: Q01DX009 (ip), vehicle: Klucel (hydroxypropylcellulose) (HPC) 109 % of control | dose: 8.2 mg/kg/injection, schedule: Q01DX009 (ip), vehicle: Klucel (hydroxypropylcellulose) (HPC) 118 % of control | dose: 33.0 mg/kg/injection, schedule: Q01DX009 (ip), vehicle: Klucel (hydroxypropylcellulose) (HPC) 103 % of control and 109 % of control | dose: 75.0 mg/kg/injection, schedule: Q01DX009 (ip), vehicle: Klucel (hydroxypropylcellulose) (HPC) 96 % of control and 113 % of control

NNC(=O)CCCCCCCCCCCCCCCO
inactive: [8] 94 % of control

CC(C)(C)C1Sc2nc3ccccc3n2C1=O (stereo not drawn)
inactive: [6] 114 % of control | dose: 12.5 mg/kg/injection, schedule: Q04DX003 (ip), vehicle: Klucel (hydroxypropylcellulose) (HPC) 100 % of control | dose: 25.0 mg/kg/injection, schedule: Q01DX009 (ip), vehicle: Klucel (hydroxypropylcellulose) (HPC) 114 % of control | dose: 25.0 mg/kg/injection, schedule: Q04DX003 (ip), vehicle: Klucel (hydroxypropylcellulose) (HPC) 120 % of control | dose: 50.0 mg/kg/injection, schedule: Q04DX003 (ip), vehicle: Klucel (hydroxypropylcellulose) (HPC) 120 % of control

COC(=O)CCN1CC1
inactive: dose: 100.0 mg/kg/injection, schedule: Q01DX001 (ip), vehicle: saline with Tween-80 101 % of control | dose: 200.0 mg/kg/injection, schedule: Q01DX001 (ip), vehicle: saline with Tween-80 107 % of control | dose: 400.0 mg/kg/injection, schedule: Q01DX001 (ip), vehicle: saline with Tween-80 92 % of control

O=C(Cl)C1C2CC1C(Cl)C2Cl (stereo not drawn)
inactive: [8] 103 % of control | [9] 108 % of control | [10] 107 % of control

O=C1CCC(N2C(=O)c3ccccc3C2=O)C(=O)N1 (stereo not drawn)
inactive: dose: 100.0 mg/kg/injection, schedule: Q01DX010 (ip), vehicle: saline 96 % of control | dose: 200.0 mg/kg/injection, schedule: Q01DX010 (ip), vehicle: saline 96 % of control | dose: 400.0 mg/kg/injection, schedule: Q01DX010 (ip), vehicle: saline 92 % of control | dose: 800.0 mg/kg/injection, schedule: Q01DX010 (ip), vehicle: saline 92 % of control

CCCCCCCCCCNc1ccc(NCCCCCCCCCC)cc1
inactive: [11] 100 % of control | [5] 120 % of control | dose: 400.0 mg/kg/injection, schedule: Q01DX009 (ip), vehicle: Klucel (hydroxypropylcellulose) (HPC) 100 % of control

CC1(C)CCC(C#N)=C1N
inactive: dose: 12.5 mg/kg/injection, schedule: Q01DX009 (ip), vehicle: saline with Tween-80 95 % of control | [4] 91 % of control | [8] 95 % of control

C[n+]1c(-c2ccc(Cl)cc2Cl)c2cc([N+](=O)[O-])ccc2c2ccccc21
inactive: dose: 3.12 mg/kg/injection, schedule: Q01DX009 (ip), vehicle: water 104 % of control | dose: 6.25 mg/kg/injection, schedule: Q01DX009 (ip), vehicle: water 88 % of control and 104 % of control and 112 % of control | dose: 12.5 mg/kg/injection, schedule: Q01DX009 (ip), vehicle: water 110 % of control and 119 % of control | dose: 25.0 mg/kg/injection, schedule: Q01DX009 (ip), vehicle: water 104 % of control (2×) and 112 % of control | dose: 50.0 mg/kg/injection, schedule: Q01DX009 (ip), vehicle: water 101 % of control

CCCCCCCCCCCC(c1ccccc1)[N+](C)(C)Cc1ccccc1 (stereo not drawn)
inactive: dose: 0.25 mg/kg/injection, schedule: Q01DX010 (ip), vehicle: saline 100 % of control | dose: 0.5 mg/kg/injection, schedule: Q01DX010 (ip), vehicle: saline 108 % of control | dose: 1.0 mg/kg/injection, schedule: Q01DX010 (ip), vehicle: saline 116 % of control | dose: 2.0 mg/kg/injection, schedule: Q01DX010 (ip), vehicle: saline 108 % of control

O=C1c2ccccc2C2N1CCCN2C(=O)c1sc2ccccc2c1Cl (stereo not drawn)
inactive: [8] 88 % of control | [9] 86 % of control | [10] 94 % of control

Oc1ccc2ccc3[nH]cnc3c2c1
inactive: dose: 50.0 mg/kg/injection, schedule: Q01DX009 (ip), vehicle: Klucel (hydroxypropylcellulose) (HPC) 95 % of control | [11] 95 % of control | [7] 100 % of control

CC1(O)c2cccc(Sc3ccccc3)c2C(C)(O)c2c(Sc3ccccc3)cccc21 (stereo not drawn)
inactive: [8] 107 % of control | [9] 99 % of control | [10] 98 % of control

CCCC[N+](CC)(CC)CCCNC1=CC(=O)C(NCCC[N+](CC)(CC)CCCC)=CC1=O
inactive: dose: 0.39 mg/kg/injection, schedule: Q04DX002 (ip), vehicle: saline 105 % of control | dose: 0.78 mg/kg/injection, schedule: Q04DX002 (ip), vehicle: saline 105 % of control

CCC1=CC(C(O)CC(C)C)C(C)(Cc2ccc(CC)cn2)NC1c1ccccc1 (stereo not drawn)
inactive: dose: 25.0 mg/kg/injection, schedule: Q04DX002 (ip), vehicle: saline with Tween-80 101 % of control | dose: 50.0 mg/kg/injection, schedule: Q04DX002 (ip), vehicle: saline with Tween-80 106 % of control

CC(C)CCOC(=O)CN(CC(=O)OCCC(C)C)c1ccccc1
inactive: [9] 100 % of control | [10] 100 % of control | dose: 400.0 mg/kg/injection, schedule: Q01DX009 (ip), vehicle: saline with Tween-80 95 % of control

CCOC(=O)CN1C=C(C(=O)c2cc3ccccc3[nH]2)CCC1
inactive: dose: 0.06 mg/kg/injection, schedule: Q01DX009 (ip), vehicle: saline 105 % of control | dose: 0.12 mg/kg/injection, schedule: Q01DX009 (ip), vehicle: saline 105 % of control | dose: 0.25 mg/kg/injection, schedule: Q01DX009 (ip), vehicle: saline 105 % of control | dose: 0.5 mg/kg/injection, schedule: Q01DX009 (ip), vehicle: saline 100 % of control | dose: 1.0 mg/kg/injection, schedule: Q01DX009 (ip), vehicle: saline 105 % of control | dose: 2.0 mg/kg/injection, schedule: Q01DX009 (ip), vehicle: saline 110 % of control | dose: 4.0 mg/kg/injection, schedule: Q01DX009 (ip), vehicle: saline 99 % of control | dose: 8.0 mg/kg/injection, schedule: Q01DX009 (ip), vehicle: saline 98 % of control | dose: 16.0 mg/kg/injection, schedule: Q01DX009 (ip), vehicle: saline 93 % of control | dose: 32.0 mg/kg/injection, schedule: Q01DX009 (ip), vehicle: saline 98 % of control

CC(=O)N1N=C(N)SC1c1ccc(Cl)c(Cl)c1 (stereo not drawn)
inactive: [8] 113 % of control | [9] 113 % of control

Cc1cc(N(CCCl)CCCl)ccc1C=Nc1cccc(Cl)c1
inactive: [8] 103 % of control | [9] 119 % of control | [1] 118 % of control | [10] 96 % of control | [3] 118 % of control

Source: PubChem BioAssay AID328 (DTP/NCI, 2004)
